Measurements from PubChem BioAssay (NCI).
Where “and” joins values, the source holds several entries; their conditions need not be identical. Equal values may be shown once.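 Following 48 hours of exposure in 96-well plates, responses at five concentrations were used to interpolate endpoints linearly. At the GI50, growth is halved. TGI is the concentration that stops growth completely.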

Tests used:
Test in all cases: NCI tumour cell line growth inhibition, 48 h
SN12C renal = system: SN12C renal
MOLT-4 leukemia = system: MOLT-4 leukemia
NCI-H23 lung = system: NCI-H23 lung
LOX IMVI melanoma = system: LOX IMVI melanoma
A498 renal = system: A498 renal
RPMI-8226 leukemia = system: RPMI-8226 leukemia
MALME-3M melanoma = system: MALME-3M melanoma
SNB-19 CNS = system: SNB-19 CNS
KM12 colon = system: KM12 colon
PC-3 prostate = system: PC-3 prostate

SMILES	TGI (SN12C renal)	GI50 (MOLT-4 leukemia) [µM]	TGI (MOLT-4 leukemia)	GI50 (NCI-H23 lung) [µM]	TGI (NCI-H23 lung) [µM]	GI50 (LOX IMVI melanoma)	TGI (LOX IMVI melanoma) [µM]	TGI (A498 renal)	GI50 (RPMI-8226 leukemia)	TGI (RPMI-8226 leukemia)	TGI (MALME-3M melanoma) [µM]	TGI (SNB-19 CNS) [µM]	GI50 (KM12 colon) [µM]	TGI (KM12 colon)	GI50 (SN12C renal) [µM]	GI50 (A498 renal)	GI50 (MALME-3M melanoma)	GI50 (SNB-19 CNS)	TGI (PC-3 prostate)	GI50 (PC-3 prostate) [µM]
O=C(/C=C\c1cccc2ccccc12)c1cccc2ccccc12	> 100 µM	2.49	8.08 µM and 20.5 µM	2.09	8.96	4.42 µM	18	31.7 µM	2.68 µM	> 100 µM	36.1	23.7	4.2	16.5 µM						
CC(=O)[O-].O=C([CH-]C(=O)c1ccccc1)c1ccccc1.O=C([CH-]C(=O)c1ccccc1)c1ccccc1.[Sm+3]	24.8 µM	2.41	21.2 µM	3.1	15.5	7.01 µM	21.7	37.2 µM	5.57 µM	33.8 µM	34	65.7	1.63	21.2 µM	6.23	13.1 µM	4.08 µM	6.44 µM		
C=CC1=C(C)C2=NC1=CC1=NC(=C(CC)/C1=C\O)C=C1N=C3C(=C1C)C(=O)[C@H](C(=O)OC)C3=C1NC(=C2)[C@@H](C)[C@@H]1CCC(=O)O	> 100 µM		> 100 µM		> 100		> 100	> 100 µM			> 100	> 100		> 100 µM					> 100 µM	
C/C=N\N1C(=O)c2ccccc2C1=O	> 100 µM		> 100 µM		> 100		> 100	> 100 µM		> 100 µM	> 100	> 100		> 100 µM						
NC(=S)NN=C1CSSC1	> 100 µM	3.75	43 µM	3.78	35.5			6.03 µM	11.4 µM	55.6 µM	28.8	11.4	5.92	23.5 µM	4.67	1.95 µM	3.67 µM	2.46 µM	24.5 µM	3.57
CNCCN=c1ccc2c3c1c(O)c1c(O)ccc(=O)c1c3[nH]n2CCNCCO	2.41 µM and 2.39 µM				2.75	0.0949 µM and 0.395 µM		1.14 µM and 5.15 µM	0.129 µM and 0.294 µM	5.04 µM and 12.4 µM			0.918	4.23 µM and 15.1 µM	0.0859	0.102 µM and 0.405 µM	0.696 µM and 0.511 µM	0.0308 µM and 0.11 µM	6.66 µM and 4.9 µM	0.41
N#CC1C=Cc2c(ccc3ccccc23)N1C(=O)c1ccccc1 (configuration not stated)	> 100 µM	0.421	> 100 µM	0.433	> 100	0.319 µM	> 100	2.48 µM	0.39 µM	> 100 µM		> 100	0.141	3.98 µM	1.15	0.139 µM		0.524 µM	> 100 µM	0.333
CC(C)=CC(=O)Cc1nc2ccc([N+](=O)[O-])cc2[nH]c1=O	> 100 µM		> 100 µM		> 100		> 100	> 100 µM		> 100 µM	> 100	> 100								
CCCCCn1c(C)cc(/C=C\c2ccc3cc(C)ccc3[n+]2C)c1C		0.0769	0.327 µM	0.0414	1.1	0.0951 µM	1.85		0.0202 µM	0.322 µM		1.51	0.0836	1.21 µM				0.123 µM	1.03 µM	0.0623
COc1cc2c3c(n(C)c(=O)c2cc1OC)-c1cc2c(cc1/C3=C\CCNCCCN)OCO2	8.41 µM	0.364	44.4 µM	2.67	12.4						4.02	14.7	1.41	10.5 µM	1.18		0.863 µM	1.42 µM	10.2 µM	2.09
O=C(O)/C(=C\c1ccncc1)c1cccc2ccccc12	> 100 µM		> 100 µM		> 100		> 100			> 100 µM	> 100	> 100		> 100 µM					> 100 µM	
CCc1cccc(C)c1NC(=O)CC1C(=O)Nc2ccccc2S1(=O)=O (configuration not stated)	63.6 µM		36 µM		41.1		27.3	58.3 µM		40.4 µM	33	75.5								
O=C(O)c1cc2ccccc2c2c1C(=O)c1ccccc1-2	> 100 µM		> 100 µM		> 100		> 100			> 100 µM	> 100	> 100		> 100 µM					> 100 µM	
CC1(C)C(=O)/C(=C\c2cccnc2)C[C@]2(C)[C@H]3CC[C@@H]4[C@@H](C(=O)/C=C/c5ccncc5)CC[C@@]4(C)[C@]3(C)CC[C@@H]12	7.85 µM	2.78	10.4 µM			1.38 µM	2.95	3.7 µM	1.21 µM	5.43 µM	3.43	3.22	1.72	3.56 µM	2.47	1.89 µM	1.78 µM	1.66 µM	4.55 µM	1.65
CC(=O)[CH-]C(C)=O.CC(=O)[CH-]C(C)=O.CC[O-].CC[O-].[Ti+4]	> 100 µM	> 100	> 100 µM			> 100 µM	> 100		> 100 µM	> 100 µM	> 100	> 100	> 100	> 100 µM	> 100		> 100 µM	> 100 µM		
N.N.O=P([O-])([O-])C1(P(=O)([O-])[O-])CCCCCN1.[Pt+2]	> 100 µM	> 100	> 100 µM	> 100	> 100	> 100 µM	> 100	> 100 µM	> 100 µM	> 100 µM	> 100	> 100	> 100	> 100 µM	> 100	> 100 µM	> 100 µM	> 100 µM		
